From US7645802B2 (Biovail Laboratories International SRL., priority 2005, dated 2010)
Counter-ions that a name gives are not always drawn.

What was measured:
[1] = tested on: Rj: Wistar (Han) rats; assay: EEG trace monitoring and behavioural observations in conscious rats
Description: The effects of the two bupropion salt forms hydrochloride and hydrobromide on central nervous system activity after intraperitoneal administration were evaluated by means of EEG trace monitoring in conscious rats. The method which detects electroencephalographic activity in conscious rats follows that described by Dürmüller et al., (2000) Vigilance-Controlled Quantified EEG in Safety Pharmacology, Current Protocols in Pharmacology Unit 10.6. The study was conducted at Porsolt & Partners Pharmacology, Research Laboratory, Z. A. des Suhards—B.P. 9, 53940 Le Genest-Saint-Isle, France.
Substances: The formulation excipient used was physiological saline (Laboratoire Aguettant). […] All substances were stored in a dry, dark, controlled access area and maintained at a controlled ambient temperature of about 20±3° C. The vehicle solutions were stored at about +4° C. The substances were administered in a volume of 5 ml/kg body weight. The doses of bupropion hydrochloride are expressed in mg/kg of salt. […] The substances were dissolved in physiological saline and prepared freshly at each day of experimentation.
Test systems: The rats used were male Rj: Wistar (Han) rats, weighing from about 280 g to 324 g at the time of implantation. They were supplied by Elevage Janvier, 53940 Le Genest-Saint-Isle, France. […] Upon delivery to the laboratory, the animals were housed in groups of 5 animals maximum, in macrolon cages (44×28×19 cm) containing wood litter (Litalabo—SPPS, 95100 Argenteuil, France). The animals had free access to food (Code 113—SAFE, 89290 Augy, France) and tap water. The animal house was maintained under artificial lighting (12 hrs) from 7:00 to 19:00 in a controlled ambient temperature of about 21±3° C. and relative humidity maintained at from about 30% to about 80%. […] Except during the test sessions, the animals had free access to food (Code 113) and tap water. The animals were identified by marking the connector fixed on the animal's head with an indelible pen. Rats were sacrificed at the end of the experiments by lethal injection of pentobarbital (>100 mg/kg i.p.). Animals were not submitted to necropsy. There is no reason to expect that contaminants were present in the feed, water or bedding at levels capable of interfering with the results of the tests. No checks were performed for this particular study.
Electrode implantation procedure: Implantation surgery was carried out under aseptic conditions. Rats, anesthetized with sodium pentobarbital (60 mg/kg i.p., plus supplementary doses of from about 5 mg/kg to about 10 mg/kg to maintain anesthesia until surgery completion) were implanted with 2 surface EEG electrodes, comprised of miniature titanium screws, placed bilaterally over the frontal-parietal cortex and 2 depth electrodes, comprised of twisted platinium-iridium wires, placed stereotaxically into the hippocampus CA3 area (Paxinos and Watson coordinates interaural: AP+5.0 mm, L±2.5 mm, V+7.0 mm). An additional screw, placed over the right occipital cortex, served as ground electrode. The electrodes were connected to small plugs and the whole assembly was secured on the skull with dental acrylate.
Apparatus: For the EEG recording, the animals were placed in rectangular Plexiglas cubicles (30×10×25 cm) mounted on treadmills. Five recording units were run in parallel. A turning commutator was attached above the centre of each cubicle, about 30 cm above walking level. On one side, it was connected via an electrically shielded multicore cable to the animal and on the other side to the signal conditioning system (Coulbourn Model V75-01). The system filters were set for all channels to high pass 1 Hz and low pass 150 Hz, respectively. The amplification levels were kept at from 1000× to 10000×. The EEG signals were acquired and processed on a PC (DELL GX620-2800) installed with a 16 channel 200 kHz/12-bit AD acquisition card (NI PCI-6023E).

[2] = comparative forced degradation of bupropion HCl and HBr API salts, closed bottle, 40° C./75% RH; assay type: physicochemical
Description: These studies were performed in closed bottles in a stability chamber kept at about 40 degrees C. and about 75% relative humidity. At specified times, the material in the bottles was analyzed for the presence of degradation products and % potency (% assay).
The samples were exposed to the above conditions in a closed bottle for few days, and then subjected to HPLC analysis.
The amount of the main degradation products present after treatment were compared with those amounts that were present initially.
The samples were analyzed after 14 and 24 days (study-1) and 10 days (study II), in a quantitative manner by direct treatment of the whole content of the bottle as per the HPLC standard test method (P05.901.10).

[3] = two batches of each API, 10 days

## CC(NC(C)(C)C)C(=O)c1cccc(Cl)c1.Cl (racemic) [bupropion hydrochloride, (±)-1-(3-chlorophenyl)-2-[(1,1-dimethylethyl)amino]-1-propanone hydrochloride]
[1]; rat, in vivo, ip, 10 mg/kg
  BEHAVIOR Facial clonus: −
  BEHAVIOR Forelimb clonus: −
  BEHAVIOR Head twitches: −
  BEHAVIOR Hyperactivity Sterotypies: −
  BEHAVIOR Rearing: −
  BEHAVIOR Wholebody clonus: −
  EEG ANALYSIS Burst cx: −
  EEG ANALYSIS Burst hipp: −
  EEG ANALYSIS Complex spike cx: −
  EEG ANALYSIS Complex spike hipp: −
  EEG ANALYSIS High amplitude fast frequency cx: −
  EEG ANALYSIS High amplitude fast frequency hipp: −
  EEG ANALYSIS High frequency burst activity hipp: −
  EEG ANALYSIS Long seizure activity cx: −
  EEG ANALYSIS Long seizure activity hipp: −
  EEG ANALYSIS Post ictual activity cx: −
  EEG ANALYSIS Post ictual activity hipp: −
  EEG ANALYSIS Repetitive isolated spike cx: −
  EEG ANALYSIS Repetitive isolated spike hipp: −
  EEG ANALYSIS Sharp waves cx: −
  EEG ANALYSIS Sharp waves hipp: −
  EEG ANALYSIS Short seizure activity cx: −
  EEG ANALYSIS Short seizure activity hipp: −
  EEG ANALYSIS Spike-and-waves cx: −
  EEG ANALYSIS Spike-and-waves hipp: −
[1]; rat, in vivo, ip, 30 mg/kg
  BEHAVIOR Facial clonus: −
  BEHAVIOR Forelimb clonus: −
  BEHAVIOR Head twitches: −
  BEHAVIOR Hyperactivity Sterotypies: +
  BEHAVIOR Rearing: −
  BEHAVIOR Wholebody clonus: −
  EEG ANALYSIS Sharp waves cx: −
  EEG ANALYSIS Sharp waves hipp: −
  EEG ANALYSIS Spike-and-waves cx: −
  EEG ANALYSIS Spike-and-waves hipp: −
[1]; rat, in vivo, ip, 60 mg/kg
  BEHAVIOR Facial clonus: −
  BEHAVIOR Forelimb clonus: −
  BEHAVIOR Head twitches: −
  BEHAVIOR Hyperactivity Sterotypies: +
  BEHAVIOR Rearing: −
  BEHAVIOR Wholebody clonus: −
  EEG ANALYSIS Sharp waves cx: −
  EEG ANALYSIS Sharp waves hipp: −
  EEG ANALYSIS Spike-and-waves cx: −
  EEG ANALYSIS Spike-and-waves hipp: −
[1]; rat, in vivo, ip, 100 mg/kg
  BEHAVIOR Facial clonus: +
  EEG ANALYSIS Spike-and-waves cx: −
  EEG ANALYSIS Spike-and-waves hipp: −

## CC(NC(C)(C)C)C(=O)c1cccc(Cl)c1 (stereo not shown) [Bupropion HCl, bupropion hydrochloride]
[2]; [3]
  assay value, HCl versus HBr: lower than that for the HBr salt

## Br.CC(NC(C)(C)C)C(=O)c1cccc(Cl)c1 (stereo not shown) [bupropion hydrobromide]
[2]; 14 and 24 days (study-1)
  resulting degradation products, HBr versus HCl: either similar or better for the HBr salt
[2]; [3]
  level of bupropion degradation impurities, HBr versus HCl: lower than bupropion HCl
[1]; 60 mg/kg i.p.
  abnormal behavior: One rat in the bupropion hydrobromide group had a fatal whole body clonus immediately after administration
[1]; rat, in vivo, ip, 10 mg/kg
  EEG ANALYSIS Burst cx: −
  EEG ANALYSIS Burst hipp: −
  EEG ANALYSIS Complex spike cx: −
  EEG ANALYSIS Complex spike hipp: −
  EEG ANALYSIS High amplitude fast frequency cx: −
  EEG ANALYSIS High amplitude fast frequency hipp: −
  EEG ANALYSIS High frequency burst activity cx: −
  EEG ANALYSIS High frequency burst activity hipp: −
  EEG ANALYSIS Long seizure activity cx: −
  EEG ANALYSIS Long seizure activity hipp: −
  EEG ANALYSIS Post ictual activity cx: −
  EEG ANALYSIS Post ictual activity hipp: −
  EEG ANALYSIS Repetitive isolated spike cx: −
  EEG ANALYSIS Repetitive isolated spike hipp: −
  EEG ANALYSIS Sharp waves hipp: −
  EEG ANALYSIS Short seizure activity cx: −
  EEG ANALYSIS Short seizure activity hipp: −
  EEG ANALYSIS Spike-and-waves cx: −
  EEG ANALYSIS Spike-and-waves hipp: −
[1]; rat, in vivo, ip, 30 mg/kg
  EEG ANALYSIS Sharp waves cx: −
  EEG ANALYSIS Sharp waves hipp: −
  EEG ANALYSIS Spike-and-waves hipp: −
[1]; rat, in vivo, ip, 60 mg/kg
  EEG ANALYSIS Sharp waves cx: −
  EEG ANALYSIS Sharp waves hipp: −
  EEG ANALYSIS Spike-and-waves cx: −
  EEG ANALYSIS Spike-and-waves hipp: −
[1]; rat, in vivo, ip, 100 mg/kg
  EEG ANALYSIS Sharp waves cx: −
  EEG ANALYSIS Sharp waves hipp: −
  EEG ANALYSIS Spike-and-waves cx: −
  EEG ANALYSIS Spike-and-waves hipp: −
